Literature values, collected in publication PMC6437649 (Molecular Pharmaceutics, 2019).

## C#C[C@]1(O)CC[C@H]2[C@@H]3CCC4=Cc5oncc5C[C@]4(C)[C@H]3CC[C@@]21C [danazol]
  log P: 4.9
